# Data: patent US9814739B2, “2′-ethynyl nucleoside derivatives for treatment of viral infections” (priority 2012, dated 2017)
# Read-outs that look alike come from different tables or passages of the source.
# Legend:
# [1] = test system: GT1b HCV luciferase replicon; experiment: HCV replicon antiviral EC50 assay; type: cell-based, Hepatitis C virus
# in vitro = details: HCV GT1b CC50 (uM)
# [2] = Hepatitis C virus, GT1B, 72 h, read-out: HCV GT1b EC50 (uM)
Compound,EC50 ([1]; read-out: HCV GT1b EC50) [µM],CC50 (in vitro) [µM],"EC50 [1, 2] [µM]","EC50 ([1]; Hepatitis C virus, 72 h, GT1b replicon cells, 3 days, luciferase, read-out: HCV GT1b EC50) [µM]"
"C#C[C@@]1(O)[C@H](O)[C@@H](COP(=O)(N[C@@H](C)C(=O)OC2CCCC2)Oc2ccccc2)O[C@H]1n1ccc(=O)[nH]c1=O (single isomer, unassigned) [1.31 (peak 2)]",0.006,> 25,,
"C#C[C@@]1(O)[C@H](O)[C@@H](COP(=O)(N[C@@H](C)C(=O)OC)Oc2ccccc2)O[C@H]1n1ccc(=O)[nH]c1=O (single isomer, unassigned) [1.35 (peak 2)]",,> 25,0.194,
"C#C[C@@]1(O)[C@H](O)[C@@H](COP(=O)(N[C@@H](CCC)C(=O)OC(C)C)Oc2ccccc2)O[C@H]1n1ccc(=O)[nH]c1=O (single isomer, unassigned) [1.24 (peak 2)]",0.062,> 25,,
"C#C[C@@]1(O)[C@H](O)[C@@H](COP(=O)(N[C@@H](C)C(=O)OC(CC)CC)Oc2ccccc2)O[C@H]1n1ccc(=O)[nH]c1=O (single isomer, unassigned) [1.16 (peak 2)]",0.056,> 25,,
"C#C[C@@]1(O)[C@H](O)[C@@H](COP(=O)(O)N[C@@H](C)C(=O)O)O[C@H]1n1ccc(=O)[nH]c1=O [Example 1.40, (2S)-2-(((((2R,3R,4R,5R)-5-(2,4-dioxo-3,4-dihydropyrimidin-1(2H)-yl)-4-ethynyl-3,4-dihydroxytetrahydrofuran-2-yl)methoxy)(hydroxy)phosphoryl)amino)propanoic acid]",,> 25,,0.148
"C#C[C@@]1(O)[C@H](O)[C@@H](COP(=O)(NC(C)(C)C(=O)OCC)Oc2ccccc2)O[C@H]1n1ccc(=O)[nH]c1=O (single isomer, unassigned) [1.37 (peak 2)]",,> 25,0.478,
"C#C[C@@]12OC(=O)O[C@@H]1[C@@H](COP(=O)(N[C@@H](C)C(=O)OC(C)C)Oc1ccccc1)O[C@H]2n1ccc(=O)[nH]c1=O (stereo partly drawn) [Example 1.22, (2S)-isopropyl 2-(((((3aR,4R,6R,6aR)-6-(2,4-dioxo-3,4-dihydropyrimidin-1(2H)-yl)-6a-ethynyl-2-oxotetrahydrofuro[3,4-d][1,3]dioxol-4-yl)methoxy)(phenoxy)phosphoryl)amino)propanoate]",,> 25,0.108,
"C#C[C@@]1(O)[C@H](O)[C@@H](COP(=O)(N[C@@H](C)C(=O)OCOC(C)=O)Oc2ccccc2)O[C@H]1n1ccc(=O)[nH]c1=O (single isomer, unassigned) [1.17 (peak 2)]",,> 25,9.09,
"C#C[C@@]1(O)[C@H](O)[C@@H](COP(=O)(N[C@@H](C)C(=O)O[C@@H](C)CC)Oc2ccccc2)O[C@H]1n1ccc(=O)[nH]c1=O (single isomer, unassigned) [1.13 (peak 2)]",0.025,> 25,,
"C#C[C@@]1(O)[C@H](O)[C@@H](COP(=O)(N[C@@H](C)C(=O)OC(CCC)CCC)Oc2ccccc2)O[C@H]1n1ccc(=O)[nH]c1=O (single isomer, unassigned) [1.34 (peak 2)]",,> 25,0.151,
"C#C[C@@]1(O)[C@H](O)[C@@H](COP(=O)(N[C@@H](C)C(=O)O[C@H](C)CC)Oc2ccccc2)O[C@H]1n1ccc(=O)[nH]c1=O (single isomer, unassigned) [1.15 (peak 2)]",0.029,> 25,,
"C#C[C@@]1(O)[C@H](O)[C@@H](COP(=O)(N[C@@H](C)C(=O)OCC)Oc2ccccc2)O[C@H]1n1ccc(=O)[nH]c1=O (single isomer, unassigned) [1.36 (peak 2)]",,> 25,0.096,
"C#C[C@@]1(O)[C@H](O)[C@@H](COP(=O)(N[C@@H](CC)C(=O)OC(C)C)Oc2ccccc2)O[C@H]1n1ccc(=O)[nH]c1=O (single isomer, unassigned) [1.38 (peak 2)]",,> 25,0.54,
